Tests used:
[1] = biological target: Voltage-gated inwardly rectifying potassium channel KCNH2 (Homo sapiens, UniProt Q12809); experiment: Binding affinity to human ERG channel
[2] = biological target: Beta-3 adrenergic receptor (Macaca mulatta) (UniProt Q28524); experiment: Agonist activity at rhesus monkey beta3 adrenergic receptor expressed in CHO cells assessed as accumulation of cAMP after 30 mins by TR-FRET assay relative to (R)-(-)-isoproterenol; type: functional, cell-based
[3] = biological target: Sodium channel protein type 2 subunit alpha (Homo sapiens, UniProt Q99250); experiment: Inhibition of human Nav1.2 channel expressed in Xenopus oocytes by two-intracellular microelectrode voltage clamp method; type: cell-based
[4] = biological target: Beta-3 adrenergic receptor (Macaca mulatta) (UniProt Q28524); experiment: Agonist activity at rhesus monkey beta3 adrenergic receptor expressed in CHO cells assessed as accumulation of cAMP after 30 mins by TR-FRET assay in presence of 40% serum relative to (R)-(-)-isoproterenol; type: functional, cell-based
[5] = biological target: Sodium-dependent serotonin transporter (Homo sapiens, UniProt P31645); experiment: Inhibition of human SERT expressed in HEK293 cells preincubated for 30 mins followed by fluorescent substrate addition measured after 30 mins by plate reader analysis; type: cell-based
[6] = Stability in rhesus monkey plasma assessed as parent compound remaining at 24 hrs by LC-MS analysis; type: ADME, cell-free, Macaca mulatta; settings: read-out: Stability
[7] = Stability in human plasma assessed as parent compound remaining at 24 hrs by LC-MS analysis; type: ADME, cell-free; settings: read-out: Stability
[8] = biological target: Beta-2 adrenergic receptor (Homo sapiens, UniProt P07550)
Chain of Beta-2 adrenergic receptor (P07550 whole entry): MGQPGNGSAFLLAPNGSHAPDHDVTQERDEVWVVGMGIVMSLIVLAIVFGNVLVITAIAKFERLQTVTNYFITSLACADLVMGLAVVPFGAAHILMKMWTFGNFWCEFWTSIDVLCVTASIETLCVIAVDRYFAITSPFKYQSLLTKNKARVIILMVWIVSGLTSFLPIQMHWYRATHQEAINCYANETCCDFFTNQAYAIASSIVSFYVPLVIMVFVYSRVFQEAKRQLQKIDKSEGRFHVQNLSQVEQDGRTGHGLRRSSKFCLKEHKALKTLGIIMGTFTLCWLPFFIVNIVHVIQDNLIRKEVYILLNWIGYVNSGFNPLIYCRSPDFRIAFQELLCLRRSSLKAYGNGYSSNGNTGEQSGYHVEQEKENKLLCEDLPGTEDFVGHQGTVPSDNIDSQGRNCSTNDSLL
Description: Displacement of [125]I-cyanopindolol from human recombinant beta2 adrenergic receptor after 1 hr by scintillation counting method

[9] = biological target: Beta-3 adrenergic receptor (Rattus norvegicus) (UniProt P26255); experiment: Agonist activity at rat beta3 adrenergic receptor expressed in CHO cells assessed as accumulation of cAMP after 30 mins by TR-FRET assay in presence of 40% serum relative to (R)-(-)-isoproterenol; type: functional, cell-based
Chain of Beta-3 adrenergic receptor (Rattus norvegicus) (P26255 whole entry): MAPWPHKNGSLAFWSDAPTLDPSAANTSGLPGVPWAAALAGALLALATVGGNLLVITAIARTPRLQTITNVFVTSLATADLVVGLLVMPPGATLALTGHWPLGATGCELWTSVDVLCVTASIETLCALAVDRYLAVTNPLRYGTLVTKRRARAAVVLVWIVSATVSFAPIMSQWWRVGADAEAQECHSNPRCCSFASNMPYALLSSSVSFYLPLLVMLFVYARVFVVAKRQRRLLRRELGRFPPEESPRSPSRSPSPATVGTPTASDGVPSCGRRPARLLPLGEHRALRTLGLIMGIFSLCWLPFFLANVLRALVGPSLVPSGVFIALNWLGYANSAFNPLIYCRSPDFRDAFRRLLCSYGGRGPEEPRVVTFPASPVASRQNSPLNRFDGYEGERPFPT

[10] = biological target: T1, Beta-3 adrenergic receptor (Homo sapiens, UniProt P13945); experiment: Agonist activity at human beta3 adrenergic receptor expressed in CHO cells assessed as accumulation of cAMP after 30 mins by TR-FRET assay relative to (R)-(-)-isoproterenol; type: functional, cell-based
Target sequence in this assay (P13945 whole entry, looked up): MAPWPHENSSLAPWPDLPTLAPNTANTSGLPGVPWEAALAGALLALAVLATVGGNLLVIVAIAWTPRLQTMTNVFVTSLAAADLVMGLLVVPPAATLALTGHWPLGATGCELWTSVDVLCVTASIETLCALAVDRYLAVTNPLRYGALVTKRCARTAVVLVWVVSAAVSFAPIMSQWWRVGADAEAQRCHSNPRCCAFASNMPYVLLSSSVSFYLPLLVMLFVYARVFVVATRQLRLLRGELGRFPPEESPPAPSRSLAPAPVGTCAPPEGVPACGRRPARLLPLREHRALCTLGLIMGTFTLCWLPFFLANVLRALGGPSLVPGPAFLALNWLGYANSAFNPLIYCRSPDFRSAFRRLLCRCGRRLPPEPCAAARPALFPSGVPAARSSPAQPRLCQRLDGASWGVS

Rhesus monkey [11] = experiment: Unbound clearance in rhesus monkey at 0.5 mg/kg, iv or 2 mg/kg, po; type: ADME, organism-based, Macaca mulatta; settings: in vivo
[12] = biological target: Beta-3 adrenergic receptor (Rattus norvegicus) (UniProt P26255); experiment: Agonist activity at rat beta3 adrenergic receptor expressed in CHO cells assessed as accumulation of cAMP after 30 mins by TR-FRET assay relative to (R)-(-)-isoproterenol; type: functional, cell-based
Rattus norvegicus [13] = experiment: Unbound clearance in rat at 1 mg/kg, iv or 2 mg/kg, po; type: ADME, organism-based; settings: in vivo
[14] = Fraction unbound in rat at 1 mg/kg, iv or 2 mg/kg, po; type: ADME, organism-based; settings: in vivo
[15] = Half life in rat at 1 mg/kg, iv or 2 mg/kg, po; type: ADME, organism-based; settings: in vivo
[16] = Plasma clearance in rhesus monkey at 0.5 mg/kg, iv or 2 mg/kg, po; type: ADME, organism-based, Macaca mulatta
[17] = Fraction unbound in rhesus monkey at 0.5 mg/kg, iv or 2 mg/kg, po; type: ADME, organism-based, Macaca mulatta; settings: in vivo
[18] = biological target: Beta-1 adrenergic receptor (Homo sapiens, UniProt P08588)
Chain of Beta-1 adrenergic receptor (P08588 whole entry): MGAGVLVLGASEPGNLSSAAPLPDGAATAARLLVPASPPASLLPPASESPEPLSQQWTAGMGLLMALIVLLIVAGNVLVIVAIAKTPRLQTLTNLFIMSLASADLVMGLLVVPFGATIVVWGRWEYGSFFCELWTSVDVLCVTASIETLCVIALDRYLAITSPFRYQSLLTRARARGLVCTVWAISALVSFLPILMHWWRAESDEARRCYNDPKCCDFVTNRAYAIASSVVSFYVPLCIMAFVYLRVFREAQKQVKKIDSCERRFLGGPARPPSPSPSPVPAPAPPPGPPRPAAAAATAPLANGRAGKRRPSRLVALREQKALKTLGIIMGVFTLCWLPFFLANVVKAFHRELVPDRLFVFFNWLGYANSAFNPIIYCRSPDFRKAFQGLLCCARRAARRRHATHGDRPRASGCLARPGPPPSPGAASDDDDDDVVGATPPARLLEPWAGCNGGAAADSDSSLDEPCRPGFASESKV
Description: Displacement of [125]I-cyanopindolol from recombinant human beta1 adrenergic receptor after 1 hr by scintillation counting method

[19] = Intrinsic clearance in rhesus monkey liver microsomes; type: ADME, Macaca mulatta; settings: read-out: CLH
[20] = biological target: Voltage-dependent L-type calcium channel subunit alpha-1C (Homo sapiens, UniProt Q13936); experiment: Displacement of [3H]-diltiazem from human Cav1.2 channel
Chain of Voltage-dependent L-type calcium channel subunit alpha-1C (Q13936 whole entry): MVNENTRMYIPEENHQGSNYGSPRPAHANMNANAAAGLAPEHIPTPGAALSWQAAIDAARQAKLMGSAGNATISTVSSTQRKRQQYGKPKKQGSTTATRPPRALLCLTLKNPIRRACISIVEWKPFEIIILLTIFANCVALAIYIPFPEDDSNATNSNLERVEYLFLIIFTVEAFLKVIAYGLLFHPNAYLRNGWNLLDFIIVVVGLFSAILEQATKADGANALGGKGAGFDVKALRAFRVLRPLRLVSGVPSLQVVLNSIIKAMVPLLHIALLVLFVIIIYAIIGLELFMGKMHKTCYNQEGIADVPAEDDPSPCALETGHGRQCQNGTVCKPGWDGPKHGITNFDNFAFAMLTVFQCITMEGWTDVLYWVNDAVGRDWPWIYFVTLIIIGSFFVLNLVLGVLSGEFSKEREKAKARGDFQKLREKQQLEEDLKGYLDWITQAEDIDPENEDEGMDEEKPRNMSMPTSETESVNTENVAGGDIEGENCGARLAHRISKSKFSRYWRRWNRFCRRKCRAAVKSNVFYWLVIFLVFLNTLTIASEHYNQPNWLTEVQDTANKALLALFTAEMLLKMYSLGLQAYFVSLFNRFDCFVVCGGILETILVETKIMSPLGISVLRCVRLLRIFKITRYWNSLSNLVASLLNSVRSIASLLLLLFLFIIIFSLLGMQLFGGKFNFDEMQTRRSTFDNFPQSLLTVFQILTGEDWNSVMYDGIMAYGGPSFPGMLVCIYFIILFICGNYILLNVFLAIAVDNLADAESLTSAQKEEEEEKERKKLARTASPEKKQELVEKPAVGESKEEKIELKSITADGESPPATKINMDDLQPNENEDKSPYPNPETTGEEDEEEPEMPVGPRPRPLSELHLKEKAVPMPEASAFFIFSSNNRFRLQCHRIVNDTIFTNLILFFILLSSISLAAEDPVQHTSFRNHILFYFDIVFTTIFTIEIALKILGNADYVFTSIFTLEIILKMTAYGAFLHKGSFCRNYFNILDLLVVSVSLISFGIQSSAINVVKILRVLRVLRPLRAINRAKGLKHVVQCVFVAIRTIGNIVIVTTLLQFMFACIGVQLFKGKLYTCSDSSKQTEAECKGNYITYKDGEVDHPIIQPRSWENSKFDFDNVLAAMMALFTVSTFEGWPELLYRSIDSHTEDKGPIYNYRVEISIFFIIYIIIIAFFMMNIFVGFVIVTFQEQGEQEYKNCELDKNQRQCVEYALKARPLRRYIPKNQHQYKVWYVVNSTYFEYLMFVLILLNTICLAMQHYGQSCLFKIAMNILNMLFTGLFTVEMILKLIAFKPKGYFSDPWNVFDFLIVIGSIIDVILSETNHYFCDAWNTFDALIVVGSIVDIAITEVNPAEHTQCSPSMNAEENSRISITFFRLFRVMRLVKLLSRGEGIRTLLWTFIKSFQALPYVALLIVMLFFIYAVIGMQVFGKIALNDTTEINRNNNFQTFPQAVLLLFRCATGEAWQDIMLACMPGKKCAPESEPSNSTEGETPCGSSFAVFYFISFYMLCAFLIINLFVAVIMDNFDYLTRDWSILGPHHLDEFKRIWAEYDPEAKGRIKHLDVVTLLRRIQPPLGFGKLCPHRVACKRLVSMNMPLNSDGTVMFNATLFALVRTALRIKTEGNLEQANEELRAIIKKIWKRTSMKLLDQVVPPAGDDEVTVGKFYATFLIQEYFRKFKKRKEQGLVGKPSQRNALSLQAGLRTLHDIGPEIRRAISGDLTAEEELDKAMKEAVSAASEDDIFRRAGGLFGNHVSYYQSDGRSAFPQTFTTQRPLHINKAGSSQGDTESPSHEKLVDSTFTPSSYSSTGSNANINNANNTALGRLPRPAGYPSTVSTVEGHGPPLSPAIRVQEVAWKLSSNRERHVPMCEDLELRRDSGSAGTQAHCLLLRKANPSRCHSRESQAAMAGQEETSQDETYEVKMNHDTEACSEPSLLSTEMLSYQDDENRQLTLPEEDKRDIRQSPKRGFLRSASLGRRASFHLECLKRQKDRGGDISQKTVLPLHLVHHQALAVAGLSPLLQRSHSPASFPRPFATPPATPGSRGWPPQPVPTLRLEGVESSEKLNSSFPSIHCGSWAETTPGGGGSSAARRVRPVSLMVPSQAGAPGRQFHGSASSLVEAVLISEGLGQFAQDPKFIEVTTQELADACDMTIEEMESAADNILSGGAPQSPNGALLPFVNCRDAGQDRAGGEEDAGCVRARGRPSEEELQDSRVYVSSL

[21] = Inhibition of rat choline transporter
[22] = Stability in rat plasma assessed as parent compound remaining at 24 hrs by LC-MS analysis; type: ADME, cell-free; settings: read-out: Stability
Canis familiaris [23] = experiment: Dose normalized fAUC in dog at 2 mg/kg, po; type: ADME, organism-based, Canis lupus familiaris; settings: in vivo
[24] = biological target: T2, Beta-3 adrenergic receptor (Macaca mulatta, UniProt Q28524); experiment: Agonist activity at rhesus monkey beta3 adrenergic receptor expressed in CHO cells assessed as accumulation of cAMP after 30 mins by TR-FRET assay in presence of 40% serum; type: functional, cell-based
T2 sequence (Q28524 whole entry): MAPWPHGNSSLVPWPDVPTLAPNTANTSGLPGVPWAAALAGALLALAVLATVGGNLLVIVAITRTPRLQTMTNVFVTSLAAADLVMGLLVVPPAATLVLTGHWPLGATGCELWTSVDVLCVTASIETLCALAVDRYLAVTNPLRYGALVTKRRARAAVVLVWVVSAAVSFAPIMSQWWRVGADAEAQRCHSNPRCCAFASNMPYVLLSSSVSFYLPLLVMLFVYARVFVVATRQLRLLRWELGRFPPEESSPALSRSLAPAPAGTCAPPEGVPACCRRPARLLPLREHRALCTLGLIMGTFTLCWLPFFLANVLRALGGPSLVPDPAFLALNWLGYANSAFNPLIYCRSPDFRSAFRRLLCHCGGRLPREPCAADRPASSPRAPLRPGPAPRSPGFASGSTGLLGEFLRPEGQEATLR

[25] = Half life in dog at 0.5 mg/kg, iv or 2 mg/kg, po; type: ADME, organism-based, Canis lupus familiaris; settings: in vivo
[26] = biological target: T1, Beta-3 adrenergic receptor; experiment: Agonist activity at human beta3 adrenergic receptor expressed in CHO cells assessed as accumulation of cAMP after 30 mins by TR-FRET assay; type: functional, cell-based
Target sequence in this assay (P13945 whole entry): as the sequence (P13945 whole entry, looked up) above

[27] = Stability in dog plasma assessed as parent compound remaining at 24 hrs by LC-MS analysis; type: ADME, cell-free, Canis lupus familiaris; settings: read-out: Stability
Canis familiaris [28] = experiment: Dose normalized total AUC in dog at 2 mg/kg, po; type: ADME, organism-based, Canis lupus familiaris; settings: in vivo
[29] = Intrinsic clearance in dog liver microsomes; type: ADME, Canis lupus familiaris; settings: read-out: CLH
Rattus norvegicus [30] = experiment: Dose normalized total AUC in rat at 2 mg/kg, po; type: ADME, organism-based; settings: in vivo
[31] = biological target: T1, Beta-3 adrenergic receptor; experiment: Agonist activity at human adrenergic beta3 receptor expressed in CHO cells assessed as accumulation of cAMP after 30 mins by TR-FRET assay in presence of 40% serum; type: functional, cell-based
Target sequence in this assay (P13945 whole entry): as the sequence (P13945 whole entry, looked up) above

[32] = biological target: T2, Beta-3 adrenergic receptor; experiment: Agonist activity at rhesus monkey beta3 adrenergic receptor expressed in CHO cells assessed as accumulation of cAMP after 30 mins by TR-FRET assay; type: functional, cell-based
[33] = Oral bioavailability in rat at 2 mg/kg; type: ADME, organism-based; settings: in vivo
[34] = Fraction unbound in dog at 0.5 mg/kg, iv or 2 mg/kg, po; type: ADME, organism-based, Canis lupus familiaris; settings: in vivo
[35] = Plasma clearance in dog at 0.5 mg/kg, iv or 2 mg/kg, po; type: ADME, organism-based, Canis lupus familiaris
[36] = Intrinsic clearance in human liver microsomes; type: ADME; settings: read-out: CLH
[37] = biological target: T3, Beta-3 adrenergic receptor (Rattus norvegicus, UniProt P26255); experiment: Agonist activity at rat beta3 adrenergic receptor expressed in CHO cells assessed as accumulation of cAMP after 30 mins by TR-FRET assay; type: functional, cell-based
T3 sequence (P26255 whole entry): as the sequence (P26255 whole entry) above

[38] = Distribution coefficient, logD of the compound at pH 7.4; type: physicochemical; settings: octanol/water
Rhesus monkey [39] = experiment: Dose normalized fAUC in rhesus monkey at 2 mg/kg, po; type: ADME, organism-based, Macaca mulatta; settings: in vivo
[40] = Oral bioavailability in dog at 2 mg/kg; type: ADME, organism-based, Canis lupus familiaris; settings: in vivo
Rattus norvegicus [41] = experiment: Dose normalized fAUC in rat at 2 mg/kg, po; type: ADME, organism-based; settings: in vivo
[42] = Induction of phospholidosis in human HepG2 cells incubated overnight by […] in presence of fluorescent labeled phospholipid probe NBD-PE; type: cell-based; settings: read-out: A50
[43] = Plasma clearance in rat at 1 mg/kg, iv or 2 mg/kg, po; type: ADME, organism-based
[44] = Oral bioavailability in rhesus monkey at 2 mg/kg; type: ADME, organism-based, Macaca mulatta; settings: in vivo
[45] = biological target: Beta-3 adrenergic receptor (Canis lupus familiaris, UniProt O02662); experiment: Agonist activity at dog beta3 adrenergic receptor expressed in CHO cells assessed as accumulation of cAMP after 30 mins by TR-FRET assay; type: functional, cell-based
Chain of Beta-3 adrenergic receptor (Canis lupus familiaris, UniProt O02662) (O02662 whole entry): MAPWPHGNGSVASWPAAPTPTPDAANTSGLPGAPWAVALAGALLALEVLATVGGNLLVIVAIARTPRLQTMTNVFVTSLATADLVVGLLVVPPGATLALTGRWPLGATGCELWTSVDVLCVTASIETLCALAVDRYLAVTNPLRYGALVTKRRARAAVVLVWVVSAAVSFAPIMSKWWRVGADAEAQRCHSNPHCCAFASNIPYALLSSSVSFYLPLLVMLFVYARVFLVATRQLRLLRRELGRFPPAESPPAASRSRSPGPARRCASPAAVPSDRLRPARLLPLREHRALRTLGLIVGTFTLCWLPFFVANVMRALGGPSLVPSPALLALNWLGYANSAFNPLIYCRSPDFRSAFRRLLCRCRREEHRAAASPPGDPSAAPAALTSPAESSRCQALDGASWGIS

[46] = Intrinsic clearance in rat liver microsomes; type: ADME; settings: read-out: CLH
Rhesus monkey [47] = experiment: Dose normalized total AUC in rhesus monkey at 2 mg/kg, po; type: ADME, organism-based, Macaca mulatta; settings: in vivo
Rattus norvegicus [48] = experiment: Increase in detrusor muscle relaxation in iv infused Sprague-Dawley rat acetic acid-induced bladder hyperreflexia model assessed as increase in functional bladder capacity measured over 30 to 45 mins; type: organism-based
[49] = biological target: T3, Beta-3 adrenergic receptor; experiment: Agonist activity at rat beta3 adrenergic receptor expressed in CHO cells assessed as accumulation of cAMP after 30 mins by TR-FRET assay in presence of 40% serum; type: functional, cell-based
Canis familiaris [50] = experiment: Unbound clearance in dog at 0.5 mg/kg, iv or 2 mg/kg, po; type: ADME, organism-based, Canis lupus familiaris; settings: in vivo
[51] = biological target: T1, Beta-3 adrenergic receptor; experiment: Agonist activity at human adrenergic beta3 receptor expressed in CHO cells assessed as accumulation of cAMP after 30 mins by TR-FRET assay in presence of 40% serum relative to (R)-(-)-isoproterenol; type: functional, cell-based
Target sequence in this assay (P13945 whole entry, looked up): as the sequence (P13945 whole entry, looked up) above

Rattus norvegicus [52] = experiment: Increase in detrusor muscle relaxation in iv infused Sprague-Dawley rat acetic acid-induced bladder hyperreflexia model assessed as decrease in micturition pressure measured over 30 to 45 mins; type: functional, organism-based
[53] = Half life in rhesus monkey at 0.5 mg/kg, iv or 2 mg/kg, po; type: ADME, organism-based, Macaca mulatta; settings: in vivo

Chain of Beta-3 adrenergic receptor (Macaca mulatta) (Q28524 whole entry): as the sequence (Q28524 whole entry) above

C[C@@H](C(=O)Nc1ccc(C[C@@H]2CC[C@H]([C@H](O)c3ccccc3)N2)cc1)n1ncccc1=O
IC50 [1]: > 30000 nM | max activation [2]: 91% | IC50 [3]: > 30000 nM | max activation [4]: 91% | IC50 [5]: > 10000 nM | remaining at 24 h [6]: 99% | remaining at 24 h [7]: 100% | IC50 [8]: > 20000 nM | max activation [9]: 83% | max activation [10]: 92% | CL free (Rhesus monkey [11]): 46 mL/min/kg | max activation [12]: 85% | CL free (Rattus norvegicus [13]): 180 mL/min/kg | fraction unbound [14]: 0.2 | half-life [15]: 2 h | clearance [16]: 33 mL/min/kg | fraction unbound [17]: 0.71 | IC50 [18]: > 20000 nM | CLint scaled [19]: 17 mL/min/kg | IC50 [20]: > 30000 nM | IC50 [21]: 2300 nM | remaining at 24 h [22]: 95% | fAUC/dose (Canis familiaris [23]): 113 nM·h/mg/kg | EC50 [24]: 12 nM | half-life [25]: 9 h | EC50 [26]: 2.7 nM | remaining at 24 h [27]: 77% | AUC/dose (Canis familiaris [28]): 290 nM·h/mg/kg | CLint scaled [29]: 34 mL/min/kg | AUC/dose (Rattus norvegicus [30]): 100 nM·h/mg/kg | EC50 [31]: 2.1 nM | EC50 [32]: 2.5 nM | bioavailability [33]: 10% | fraction unbound [34]: 0.39 | clearance [35]: 23 mL/min/kg | CLint scaled [36]: 10 mL/min/kg | EC50 [37]: 531 nM | logD [38]: 1.3 | fAUC/dose (Rhesus monkey [39]): 213 nM·h/mg/kg | bioavailability [40]: 91% | fAUC/dose (Rattus norvegicus [41]): 20 nM·h/mg/kg | AC50 [42]: 42000 nM | clearance [43]: 36 mL/min/kg | bioavailability [44]: 29% | EC50 [45]: 39 nM | CLint scaled [46]: 31 mL/min/kg | AUC/dose (Rhesus monkey [47]): 300 nM·h/mg/kg | Activity (Rattus norvegicus [48]): Dose-dependent effect | EC50 [49]: 245 nM | CL free (Canis familiaris [50]): 59 mL/min/kg | max activation [51]: 98% | Activity (Rattus norvegicus [52]): Dose-dependent effect | half-life [53]: 9 h

— ChEMBL document CHEMBL3763146 (J Med Chem, 2016)
